In publication PMC8196580, “Identification of Kaurane-Type Diterpenes as Inhibitors of Leishmania Pteridine Reductase I” (Molecules, 2021):
Like-named read-outs stand apart in the source and are kept apart here.

What was measured:
LmPTR1 = molecular target: T1, LmPTR1 (Leishmania major, UniProt Q01782); experiment: LmPTR1 enzyme inhibition assay (spectrophotometric, NADPH oxidation at 340 nm); type: biochemical; details: for Ki: read-out: Ki^app; for IC50: recombinant LmPTR1, DHB 20 µM, NADPH 250 µM, pH 6.0, 30 °C, 0.1–128 µM, read-out: IC50
T1 construct: made in house
T1 sequence (Q01782 1-288): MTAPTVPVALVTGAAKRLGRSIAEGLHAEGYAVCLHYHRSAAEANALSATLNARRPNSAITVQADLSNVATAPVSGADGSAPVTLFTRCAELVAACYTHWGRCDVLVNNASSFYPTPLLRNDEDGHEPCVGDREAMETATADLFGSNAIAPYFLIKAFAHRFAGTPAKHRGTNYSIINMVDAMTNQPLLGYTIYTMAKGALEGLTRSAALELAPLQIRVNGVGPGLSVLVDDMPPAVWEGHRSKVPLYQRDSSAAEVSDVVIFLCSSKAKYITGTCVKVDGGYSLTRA
Procedure: The selected synthetic diterpene esters 135, 301, 302, 301a, and 302a were tested in vitro to experimentally determine their abilities to inhibit the enzymatic activity of LmPTR1 as an extension of the results provided by the in silico screening. […] The IC50 was then calculated for the tested diterpenes, and these values were used to calculate the apparent inhibitory constant (Ki^app) (Table 3) using the Cheng–Prusoff equation, assuming reversible competitive inhibition and 1:1 stoichiometry. PMA, a known PTR1 inhibitor, was used as a positive control. […] Therefore, a reasonable inference based on this small set of compounds is that the presence of a p-hydroxyl group at the phenylpropanoid moiety might favor inhibitory activity, whereas a 9β-hydroxyl group at the diterpene moiety has a negative influence on LmPTR1 inhibition.
Recombinant LmPTR1 enzyme was obtained, purified, and kinetically characterized, as reported previously. The in vitro assessment of selected diterpenes (i.e., 135, 301, 302, 301a, and 302a) for LmPTR1 inhibitory activity was performed through the spectrophotometric monitoring of the enzymatic activity under balanced conditions: LmPTR1 (30 µg), 7,8-dihydro-L-biopterin (DHB, 20 µM), sodium citrate buffer (20 mM, pH 6.0), 30 °C, and a final assay volume of 600 µL. Each reaction was started by the addition of 250 µM NADPH. Absorbance was monitored at 340 nm (i.e., oxidation of NADPH to NADP+) for 240 s, and the resulting profile was used to measure the initial reaction rate (IRR) through the respective slope by linear regression. All recordings were performed in triplicate. PMA was used as the positive control. The resulting IRR values were used to calculate the % inhibition, as 100 − (Ri/Rc × 100), where Ri is the IRR in the presence of the inhibitor and Rc is the IRR in the absence of inhibitors (1% DMSO v/v final concentration). The % inhibition for at least five concentrations (range: 0.1–128 µM) for each test compound (diterpenes and PMA) were calculated, and concentration-response curves (% inhibition vs. Log[inhibitor]) were obtained by non-linear regression to determine the IC50 using GraphPad Prism 5.0 (GraphPad, San Diego, CA, USA). Finally, Ki^app values were calculated using the Cheng–Prusoff equation for competitive inhibition, assuming a 1:1 stoichiometry and that the inhibitor-binding reactions are reversible: Ki^app = IC50/(1 + [S]/Km), where [S] is the substrate (DHB) concentration and Km is the Michaelis constant. The substrate Km was calculated during the kinetic characterization of purified, recombinant LmPTR1.

L. major [1] = experiment: ChEMBL dataset of pIC50 values against L. major used for the RF model (Table S1); type: cell-based, Leishmania major; also: call rule not given here
L. major [2] = tested on: L. major; design: method as in ChEMBL; details: ref ChEMBL, cited from earlier work
[3] = Active/Inactive class assigned to the ChEMBL pIC50 value for Random forest model construction, ref ChEMBL
[4] = ChemBL structures with pIC50 values used for Random forest model construction, L. major
[5] = Active/Inactive class assigned to ChemBL structures for Random forest model construction (Table S1)
[6] = ChemBL structures with pIC50 values used for Random forest model construction (Table S1)

Compound | Outcome (L. major [1]; [3]) | pIC50 Value (L. major [2]; [4]) | also measured
C=C1CC23CCC4C(C)(C(=O)O)C(OC(=O)C=Cc5ccc(O)cc5)CCC4(C)C2(O)CCC1C3 (stereo not drawn) [301a, 3α-p-coumaroyloxy-9β-hydroxy-ent-kaur-16-en-19-oic Acid] | – | – | Ki (LmPTR1): 5.08 µM; IC50 (LmPTR1): 23.2 µM
C=C1CC23CCC4C(C)(CCC(OC(=O)C=Cc5ccc(O)cc5)C4(C)C(=O)O)C2CCC1C3 (stereo not drawn) [302a, 3α-p-coumaroyloxy-ent-kaur-16-en-19-oic acid] | – | – | improvement of inhibitory activity versus 302 (LmPTR1; 3α-p-coumaroyloxy instead of 3α-cinnamoyloxy): approximately 60%; Ki (LmPTR1): 1.33 µM; IC50 (LmPTR1): 6.1 µM
COc1ccccc1-c1nnc(-c2ccc(C(=O)N/N=C/c3cccc(C)c3)cc2)o1 [CHEMBL4097073] | Inactive | 4.40 | –
COc1ccccc1-c1nnc(-c2ccc(C(=O)N/N=C/c3cc(O)c(O)cc3O)cc2)o1 [CHEMBL4098126] | – | – | Outcome (L. major [1]; [5]): Active; pIC50 Value (L. major [2]; [6]): 6.01
COc1cccc(/C=N/NC(=O)c2ccc(-c3nnc(-c4ccccc4OC)o3)cc2)c1 [CHEMBL4098544] | Inactive | 4.10 | –
COc1ccccc1-c1nnc(-c2ccc(C(=O)N/N=C/c3ccc(F)cc3)cc2)o1 [CHEMBL4099059] | Inactive | 4.85 | –
COc1ccc(/C=N/NC(=O)c2ccc(-c3nnc(-c4ccccc4OC)o3)cc2)cc1 [CHEMBL4099467] | Inactive | 4.13 | –
COc1ccccc1-c1nnc(-c2ccc(C(=O)N/N=C/c3cccc(O)c3)cc2)o1 [CHEMBL4103014] | Inactive | 4.74 | –
COc1ccccc1-c1nnc(-c2ccc(C(=O)N/N=C/c3ccccc3[N+](=O)[O-])cc2)o1 [CHEMBL4104790] | Inactive | 4.19 | –
C#CCOc1ccc(/C=N/NC(N)=S)cc1OC [CHEMBL4159578] | – | – | Outcome (L. major [1]; [5]): Active; pIC50 Value (L. major [2]; [6]): 5.85
COc1cc(/C=N\NC(N)=S)ccc1OCc1cn(CC(=O)c2ccc(Br)cc2)nn1 [CHEMBL4159895] | Active | 5.29 | –
COc1cc(OCC=C(C)C)ccc1C(=O)/C=C/c1ccc([N+](=O)[O-])cc1 [CHEMBL4161584] | – | – | Outcome (L. major [1]; [5]): Active; pIC50 Value (L. major [2]; [6]): 5.48
C#CCOc1ccc(C(=O)/C=C/c2ccc(F)cc2)c(OCC#C)c1 [CHEMBL4162285] | Active | 5.00 | –
COc1cc(/C=N/NC(N)=S)ccc1OCc1cn(CC(=O)c2ccc(C)cc2)nn1 [CHEMBL4163267] | – | – | Outcome (L. major [1]; [5]): Active; pIC50 Value (L. major [2]; [6]): 5.30
COc1ccc(/C=N\NC(N)=S)cc1OCc1cn(CC(=O)c2ccc(Cl)cc2)nn1 [CHEMBL4163696] | – | – | Outcome (L. major [1]; [5]): Active; pIC50 Value (L. major [2]; [6]): 5.77
COc1cc(/C=N\NC(N)=S)ccc1OCc1cn(CC(=O)c2ccc(Cl)cc2)nn1 [CHEMBL4164916] | Active | 5.27 | –
COc1ccc(/C=N/NC(N)=S)cc1OCc1cn(-c2ccc(S(N)(=O)=O)cc2)nn1 [CHEMBL4165645] | – | – | Outcome (L. major [1]; [5]): Active; pIC50 Value (L. major [2]; [6]): 5.36
C/C(=N/NC(N)=S)c1ccc(OCc2cn(CC(=O)c3ccc(Br)cc3)nn2)cc1 [CHEMBL4166113] | – | – | Outcome (L. major [1]; [5]): Active; pIC50 Value (L. major [2]; [6]): 6.00
COc1ccc(/C=N/NC(N)=S)cc1OCc1cn(CC(=O)c2ccc(F)cc2)nn1 [CHEMBL4167146] | – | – | Outcome (L. major [1]; [5]): Active; pIC50 Value (L. major [2]; [6]): 5.32
C/C(=N/NC(N)=S)c1ccc(OCc2cn(-c3ccc(C(=O)O)cc3)nn2)cc1 [CHEMBL4169531] | Active | 5.13 | –
COc1cc(/C=N/NC(N)=S)ccc1OCc1cn(CC(=O)c2ccc(F)cc2)nn1 [CHEMBL4170543] | Active | 5.16 | –
COc1ccc(/C=N\NC(N)=S)cc1OCc1cn(CC(=O)c2ccccc2)nn1 [CHEMBL4171583] | – | – | Outcome (L. major [1]; [5]): Active; pIC50 Value (L. major [2]; [6]): 5.36
COc1ccc(/C=N/NC(N)=S)cc1OCc1cn(CC(=O)c2ccc(C)cc2)nn1 [CHEMBL4173573] | – | – | Outcome (L. major [1]; [5]): Active; pIC50 Value (L. major [2]; [6]): 5.66
COc1cc(/C=N/NC(N)=S)ccc1OCc1cn(-c2ccc(C(=O)O)cc2)nn1 [CHEMBL4173978] | Active | 5.24 | –

Compound | Outcome (L. major [1]; [3]) | pIC50 Value (L. major [2]; [4]) | also measured
COc1ccc(/C=N/NC(N)=S)cc1OCc1cn(-c2ccc(C(=O)O)cc2)nn1 [CHEMBL4174032] | – | – | Outcome (L. major [1]; [5]): Active; pIC50 Value (L. major [2]; [6]): 5.30
COc1ccc(/C=N\NC(N)=S)cc1OCc1cn(CC(=O)c2ccc(Br)cc2)nn1 [CHEMBL4175020] | Active | 5.24 | –
COc1cc(/C=N\NC(N)=S)ccc1OCc1cn(CC(=O)c2ccccc2)nn1 [CHEMBL4175538] | Active | 5.27 | –
C/C(=N/NC(N)=S)c1ccc(OCc2cn(-c3ccc(S(N)(=O)=O)cc3)nn2)cc1 [CHEMBL4177394] | Active | 5.08 | –
CC1(C)C2CCC1(C)[C@H](OC(=O)/C=C/c1ccc(O)c(O)c1)C2 (stereo partly shown) [CHEMBL4177500] | Inactive | 4.31 | –
CC(C)N1CN(CC(=O)O)CSC1=S [CHEMBL4277354] | Inactive | 3.86 | –
CCCCN1CSC(=S)N(CC(=O)O)C1 [CHEMBL4278695] | Inactive | 4.44 | –
CCCN1CN(CC(=O)OCC)CSC1=S [CHEMBL4279218] | Inactive | 3.97 | –
CC(c1ccccc1)N1CN(CCO)CSC1=S (stereo not shown) [CHEMBL4279631] | Inactive | 4.49 | –
CCCN1CSC(=S)N(CC(=O)O)C1 [CHEMBL4282164] | Inactive | 4.16 | –
CC(C)N1CSC(=S)N(C(C)c2ccccc2)C1 (stereo not shown) [CHEMBL4283106] | Inactive | 4.67 | –
CCCCN1CN(CC(=O)O)CSC1=S [CHEMBL4283328] | Inactive | 4.61 | –
CCN1CN(CC(=O)O)CSC1=S [CHEMBL4284377] | Inactive | 4.48 | –
CCN1CSC(=S)N(C(C)c2ccccc2)C1 (stereo not shown) [CHEMBL4286479] | Inactive | 4.34 | –
CC(c1ccccc1)N1CN(CC(=O)O)CSC1=S (stereo not shown) [CHEMBL4286679] | Inactive | 4.51 | –
CCCCN1CSC(=S)N(C(C)c2ccccc2)C1 (stereo not shown) [CHEMBL4287541] | Inactive | 4.67 | –
CCCN1CN(CC(=O)O)CSC1=S [CHEMBL4287780] | Inactive | 4.41 | –
CCCN1CN(CC(=O)OCc2ccccc2)CSC1=S [CHEMBL4289905] | Inactive | 4.03 | –
O=C(O)CN1CN(CCO)CSC1=S [CHEMBL4290046] | Inactive | 4.40 | –
CCCN1CSC(=S)N(C(C)c2ccccc2)C1 (stereo not shown) [CHEMBL4290968] | Inactive | 4.62 | –
COc1ccc(CN2CN(CC(=O)O)CSC2=S)cc1OC [CHEMBL4291183] | Inactive | 4.81 | –
CCCCN1CN(CC(=O)OCC)CSC1=S [CHEMBL4294357] | Inactive | 4.44 | –
CCCN1CN(CC(=O)OC)CSC1=S [CHEMBL4294585] | Inactive | 3.69 | –
CCN1CSC(=S)N(CC(=O)O)C1 [CHEMBL4294782] | Inactive | 4.34 | –
